Measurements taken from publication PMC4907692, “Engineering vanilloid-sensitivity into the rat TRPV2 channel” (eLife, 2016).
“And” between values parts separate entries of the source, which are not always exact repeats. Equal values may be shown once.

Assays:
TRPV2 F472S/Q530E = target: T1, TRPV2 F472S/Q530E (Rattus norvegicus, UniProt Q9WUD2, F472S/Q530E); test: Two-electrode voltage-clamp in Xenopus oocytes, TRPV2 F472S/Q530E; type: cell-based; conditions: 100 nM RTx
T1 construct: expressed in transfected cells; host or cells: Xenopus oocytes (cRNA injection)
T1 sequence (Q9WUD2 whole entry F472S/Q530E): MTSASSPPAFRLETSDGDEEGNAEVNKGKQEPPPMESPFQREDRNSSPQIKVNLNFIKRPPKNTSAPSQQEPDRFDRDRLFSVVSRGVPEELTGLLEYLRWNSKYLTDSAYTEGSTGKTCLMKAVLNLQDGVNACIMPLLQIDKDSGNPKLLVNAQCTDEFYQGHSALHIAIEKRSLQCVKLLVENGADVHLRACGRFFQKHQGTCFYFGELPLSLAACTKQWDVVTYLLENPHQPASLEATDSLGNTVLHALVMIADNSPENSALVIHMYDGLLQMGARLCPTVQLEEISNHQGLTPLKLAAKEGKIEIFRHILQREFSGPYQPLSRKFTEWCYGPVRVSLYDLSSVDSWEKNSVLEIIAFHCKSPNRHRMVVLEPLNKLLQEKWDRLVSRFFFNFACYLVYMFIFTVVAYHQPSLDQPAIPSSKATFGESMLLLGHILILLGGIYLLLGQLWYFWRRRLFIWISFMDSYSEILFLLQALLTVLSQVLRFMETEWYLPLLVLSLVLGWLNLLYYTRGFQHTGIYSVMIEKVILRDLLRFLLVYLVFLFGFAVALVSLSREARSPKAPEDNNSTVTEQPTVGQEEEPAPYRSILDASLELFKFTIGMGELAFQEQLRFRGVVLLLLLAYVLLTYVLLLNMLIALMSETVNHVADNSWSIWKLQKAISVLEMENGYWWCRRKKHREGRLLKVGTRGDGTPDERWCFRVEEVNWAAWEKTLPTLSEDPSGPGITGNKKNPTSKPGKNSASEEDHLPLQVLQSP

[1] = target: T2, full-length 1D4-tagged TRPV1 (Rattus norvegicus, UniProt O35433); test: 3H-RTx binding to S. cerevisiae membranes containing 1D4-tagged TRPV1; conditions: for Hill slope (nH): membranes
T2 construct: made in house; host or cells: S. cerevisiae BJ5457, YEpHIS vector, PMA1 promoter; isolated membranes
T2 sequence (O35433 whole entry): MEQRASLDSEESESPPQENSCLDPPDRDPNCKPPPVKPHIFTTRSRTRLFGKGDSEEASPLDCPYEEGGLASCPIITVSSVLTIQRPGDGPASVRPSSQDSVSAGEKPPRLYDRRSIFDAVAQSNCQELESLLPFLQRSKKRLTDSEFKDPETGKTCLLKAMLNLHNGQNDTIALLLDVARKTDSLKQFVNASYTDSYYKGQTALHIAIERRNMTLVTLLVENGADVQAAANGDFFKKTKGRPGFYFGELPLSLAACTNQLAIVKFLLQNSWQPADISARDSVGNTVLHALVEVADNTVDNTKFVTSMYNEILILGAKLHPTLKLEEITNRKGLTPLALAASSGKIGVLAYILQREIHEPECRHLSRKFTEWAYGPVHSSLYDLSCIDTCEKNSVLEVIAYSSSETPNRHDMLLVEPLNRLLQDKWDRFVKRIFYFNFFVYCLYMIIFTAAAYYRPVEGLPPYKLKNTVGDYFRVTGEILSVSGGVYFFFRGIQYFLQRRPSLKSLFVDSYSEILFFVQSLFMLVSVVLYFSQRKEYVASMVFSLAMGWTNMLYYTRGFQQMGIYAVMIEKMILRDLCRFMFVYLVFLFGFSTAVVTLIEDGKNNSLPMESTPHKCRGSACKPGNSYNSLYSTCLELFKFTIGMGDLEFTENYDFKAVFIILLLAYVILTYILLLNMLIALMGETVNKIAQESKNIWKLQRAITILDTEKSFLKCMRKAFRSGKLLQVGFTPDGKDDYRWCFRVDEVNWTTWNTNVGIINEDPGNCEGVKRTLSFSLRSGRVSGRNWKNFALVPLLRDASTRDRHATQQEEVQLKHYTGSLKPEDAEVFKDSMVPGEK
Source text: The polymodal activation of TRPV1 has been widely conceptualized using allosteric models wherein binding of activators (such as vanilloids, protons, DkTx or voltage) are allosterically coupled to opening of the pore ([Brauchi et al., 2004]; [Jara-Oseguera et al., 2016]; [Matta and Ahern, 2007]). The allosteric nature of these interactions has begun to be explored using electrophysiological measurements of channel function ([Jara-Oseguera et al., 2016]; [Yao et al., 2010]), but has thus far not been investigated biochemically. We therefore tested whether binding of DkTx can enhance the affinity of TRPV1 for RTx, which would be predicted by an allosteric model wherein the two activators promote opening by binding more tightly to the open state. For these experiments we used a 1D4-tagged TRPV1 construct where expression in S. cerevisiae was driven by a constitutive promoter and we performed binding assays on yeast membranes where the vanilloid would have free access to the channel protein (see Methods). Under these conditions, we measured a Kd for RTx binding to 1D4-tagged TRPV1 of 0.6 nM under control conditions, about ten fold higher affinity than what we measured in intact cells using GFP-tagged TRPV1. When we measured the concentration-dependence of RTx binding to 1D4-tagged TRPV1 in the presence of DkTx, we observed that the tarantula toxin enhanced the affinity for RTx by about 3-fold (Figure 2A). The effects of DkTx were concentration-dependent (Figure 2B) and were observed independent of whether the binding assay was performed at 37°C (our standard temperature) or at 30°C (Figure 2A).
The full-length TRPV1 and TRPV2 channels with 1D4 affinity tags (TETSQVAPA) on their C-termini were cloned into the YEpHIS vector and expressed in the BJ5457 strain of S. cerevisiae using the strong constitutively active PMA1 promoter, as previously described ([Moiseenkova-Bell et al., 2008]). After 48 hr of expression at 30°C in YPD media, cells were harvested by centrifugation and re-suspended in PBS buffer, supplemented with complete protease inhibitor cocktail (Roche, Indianapolis, IN) and 4-amidinophenylmethanesulfonyl fluoride hydrochloride (APMSF) (Sigma-Aldrich, St. Louis, MO). Cells were broken by passing through an Avestin homogenizer at the pressure of 35 kpsi, cell lysate was cleared by centrifugation at 8,000 g for 15 min and membranes were isolated by ultracentrifugation at 190,000 g for 1 hr. Membrane pellets were re-suspended in PBS buffer supplemented with protease inhibitors and 200 mM sucrose, flash-frozen in liquid nitrogen and stored at -70°C until RTx binding measurements.
S. cerevisiae cells overexpressing TRPV1 constructs to be used in ligand binding assays on intact cells (Figure 1E,F) were grown as for small scale expression trials. 24 hr after protein induction cells were spun down at 4000g, the supernatant was removed and the pellet resuspended in 1x PBS, normalizing OD600 to 75 for each sample, and aliquoted for storage at -80°C. ^3H-RTx binding assays on cells were performed at 37°C as previously described ([Feng et al., 2015]), but where non-specific binding of RTx was measured using cells expressing GFP alone. The binding of RTx to TRPV1 and TRPV2 in membranes (e.g. Figure 2A,B and 5C) was performed at 37°C unless otherwise stated using membranes prepared from large scale protein preparations of S. cerevisiae containing rat TRPV1 and TRPV2 with a 1D4 tag expressed using a constitutive promoter as in [Moiseenkova-Bell et al., 2008]. Data for binding of RTx to membranes was corrected for non-specific binding, determined using either excess non-radioactive ligand or heat inactivation of the protein, as previously described ([Feng et al., 2015]). The TRPV1-activating double-knot toxin (DkTx) was produced recombinantly, folded in vitro and purified as previously described ([Bae et al., 2012]). Yeast membranes were incubated with DkTx solution for 1 hr at 4°C with gentle agitation prior to undertaking RTx binding assays. […]

[2] = target: T3, TRPV1 QM (S512F, M547L, T550L, E570Q) (Rattus norvegicus, UniProt O35433, E570Q/M547L/S512F/T550L); test: Two-electrode voltage-clamp in Xenopus oocytes, TRPV1 QM; type: cell-based; conditions: 100 nM RTx
T3 construct: expressed in transfected cells; host or cells: Xenopus oocytes (cRNA injection)
T3 sequence (O35433 whole entry S512F/M547L/T550L/E570Q): as the sequence (O35433 whole entry) above, with S512F, M547L, T550L, E570Q counted along it
Source text: To further investigate the putative vanilloid binding pocket in TRPV1, we inspected the cryo-EM structure of TRPV1, looking for residues that are located nearby to the putative RTx density (Figure 1B; regions/residues highlighted in yellow) and that differ between TRPV1 and TRPV2 channels (Figure 3—figure supplement 1; regions highlighted in magenta). […] To quantify the contribution of each of these residues to TRPV1 channel activation by RTx under our experimental conditions, we mutated each to the corresponding residue in TRPV2. We then expressed each construct in oocytes and used the two electrode voltage-clamp technique to study activation by RTx and by the non-specific TRPV channel activator 2-APB. We recorded time courses for channel activation by each agonist while stepping the membrane potential from −60 to +60 mV every 3 s from a holding potential of 0 mV using an external recording solution containing 100 mM KCl (internal K^+ concentration in a healthy oocyte is 100 mM) (Figure 3A, left). We also recorded current-voltage (I-V) relations by stepping over a wider range of voltages in the absence and presence of activators, or in the presence of ruthenium red (RR), a non-specific inhibitor of TRP channels (Figure 3A, right). […]

C=C(C)[C@]12C[C@@H](C)[C@@]34O[C@](Cc5ccccc5)(O[C@@H]1[C@@H]3C=C(COC(=O)Cc1ccc(O)c(OC)c1)C[C@]1(O)C(=O)C(C)=C[C@@H]41)O2 [RTx, resiniferatoxin]
channel activation by RTx (TRPV2 F472S/Q530E): unresponsive
Kd ([1]; Kd of 3H-RTx binding (Hill fit)): 0.53 nM and 0.8 nM
Hill slope (nH) ([1]; control (no DkTx), 30°C): 1.1
Hill slope (nH) ([1]; control (no DkTx), 37°C): 1.24
Hill slope (nH) ([1]; in the presence of DkTx (0.7 µM), 30°C): 1
Hill slope (nH) ([1]; in the presence of DkTx (0.7 µM), 37°C): 0.92
channel activation by RTx [2]: completely lost sensitivity
